The results in this text go back to the Deep4Chem optical property database.

This data set can be described thus: solvent given as SMILES.

In the case of `CN(C)c1ccc(C(=O)c2ccccc2)cc1`, the fluorescence lifetime is, setting by setting: (in C1CCCCC1) 0.1 ns; (in CC#N) 0.16 ns; (in CO) 0.0052 ns; (in CS(C)=O) 0.1 ns; (in c1ccccc1) 0.9 ns.

Take `c1ccc(/C(=C(\c2ccccc2)c2cc(-c3ccccc3)ccc2-c2ccccc2)c2cc(-c3ccccc3)ccc2-c2ccccc2)cc1`: the fluorescence lifetime (in C1CCOC1) was 6.5 ns.

For the setting “in ClCCl”, `COc1ccc(-c2c3cc4cc(C)sc4cc3c(C#Cc3ccccc3)c3cc4cc(C)sc4cc23)cc1` registered a fluorescence lifetime of 10.8 ns.

As to `COc1ccc(-c2ccc3c(c2)c2cc(-c4ccc(OC)cc4)ccc2n3-c2ccc(C(=O)c3ccc4sc5ccccc5c4c3)cn2)cc1`, the fluorescence lifetime (in c1cc(-n2c3ccccc3c3ccccc32)cc(-n2c3ccccc3c3ccccc32)c1) is 5.9 ns.

In the case of `CCC12C(=C3C(=C4c5ccc(-c6ccc(CO)cc6)cc5S(=O)(=O)C41CC)C(F)(F)C(F)(F)C3(F)F)c1ccc(-c3ccc(CO)cc3)cc1S2(=O)=O` (stereo not given), the fluorescence lifetime (in C1COCCO1) turned out to be 2.9 ns.

Turning to `O=C(O)CCCCCn1c2ccccc2c(=O)c2cc(Br)ccc21`, the fluorescence lifetime (in O) is 8.6 ns.

On to `Cc1ccccc1-c1ccccc1C`, for which the fluorescence lifetime (in C1CCCCC1) stood at 2.5 ns.

Turning to `COc1ccc(C2=Cc3ccccc3P2(=O)c2ccccc2)cc1` (stereo not given), the fluorescence lifetime (in ClCCl) came to 6.4 ns.

`CCCCC(CC)CN1C(=O)c2cc(Oc3ccc(OC)cc3)c3c4c(Cl)cc5c6c(cc(Cl)c(c7c(Oc8ccc(OC)cc8)cc(c2c37)C1=O)c64)C(=O)N(c1c(C(C)C)cccc1C(C)C)C5=O` (stereo not given) registered a fluorescence lifetime (in Cc1ccccc1) of 0.56 ns.

On to `NCCCCCCCCCCCCN1C(=O)c2ccc3c4ccc5c6c(ccc(c7ccc(c2c37)C1=O)c64)C(=O)N(CCCCCCCCCCCCN)C5=O`, for which the fluorescence lifetime (in CN(C)C=O) is 4.1 ns.

Take `Cc1nc2c(c[n+]1C)CN1C(=O)N([C@H]3O[C@@H](CO)[C@H](O)[C@@H]3O)C=CC1=N2`: the fluorescence lifetime is, setting by setting: (in CC#N) 3.61 ns; (in CC(C)=O) 3.12 ns; (in CCCO) 0.39 ns; (in CCO) 0.47 ns; (in CO) 0.55 ns; (in O) 1.58 ns. Further, the fluorescence lifetime by setting is: (in [2H]OC) 0.58 ns; (in [2H]OCC) 0.5 ns; (in [2H]O[2H]) 1.86 ns.

For `CCCCCCCCCCCCSc1cc2c3c(ccc4c5c(SCCCCCCCCCCCC)cc6c7c(ccc(c1c34)c75)C(=O)N(C1CCCCC1)C6=O)C(=O)N(C1CCCCC1)C2=O`, the fluorescence lifetime (in ClC(Cl)Cl) is 8.5 ns.

In turn, `c1ccc(-c2cc(-c3ccccc3)cc(-c3ccc4c(c3)C3(c5cc(-c6cc(-c7ccccc7)cc(-c7ccccc7)c6)ccc5-4)c4ccccc4-c4c3c3c5ccccc5ccc3c3ccccc43)c2)cc1` registered a fluorescence lifetime (in Cc1ccccc1) of 3.07 ns.

For `C(#Cc1ccccc1)C(C#Cc1ccccc1)=Cc1ccc2cc(C=C(C#Cc3ccccc3)C#Cc3ccccc3)ccc2c1`, the fluorescence lifetime (in ClC(Cl)Cl) was 1.1 ns.

In the case of `COc1ncccc1B(O)O`, the fluorescence lifetime by setting is: (in C1COCCO1) 0.415 ns; (in CC(C)O) 0.399 ns; (in CCCCCC) 0.211 ns; (in CCCCCCC) 0.253 ns; (in CCCCCCCC) 0.299 ns; (in CCCCCCCCO) 0.463 ns. In addition, the fluorescence lifetime came to 0.499 ns (in CCO) and 1.57 ns (in CO).

On to `O=c1c2ccccc2[nH]c2ccccc12`, for which, for the setting “in CS(C)=O”, the fluorescence lifetime came to 9.1 ns.

Consider `O=C1c2ccccc2-c2ccc(Nc3nc(Cl)nc(Cl)n3)c3cccc1c23`, for which the fluorescence lifetime (in CC#N) stood at 6.6 ns; the fluorescence lifetime (in CC(C)=O) was found to be 4.5 ns; the fluorescence lifetime (in CC(C)O) was determined as 7.7 ns; the fluorescence lifetime (in CCCCOCCCC) came out at 0.5 ns; the fluorescence lifetime (in CCOC(C)=O) was 1.6 ns; the fluorescence lifetime (in CCOCC) came to 0.7 ns. The fluorescence lifetime stood at 7.6 ns (in CO); 0.9 ns (in Cc1ccccc1); 2 ns (in Clc1ccccc1); 6 ns (in N#Cc1ccccc1); 3.4 ns (in O=C1CCCCC1).

For `COc1c2ccccc2c(OC)c2c1c1ccc(C(F)(F)F)cc1n2C`, the fluorescence lifetime (in C1CCCCC1) turned out to be 26 ns, the fluorescence lifetime (in CC#N) amounted to 31.2 ns, the fluorescence lifetime (in CO) came out at 28.6 ns and the fluorescence lifetime (in ClCCl) amounted to 25.8 ns.

Under “in ClCCl”, `COc1ccc(-c2cc3c(s2)c(-c2ccccc2)cc(=O)n3C)cc1` showed a fluorescence lifetime of 4.69 ns.

Turning to `FC(F)(F)c1ccc(-c2nnc(-c3cc(-c4nnc(-c5ccc(C(F)(F)F)cc5)o4)c(-n4c5ccccc5c5ccccc54)cc3-n3c4ccccc4c4ccccc43)o2)cc1`, the fluorescence lifetime stood at 5.1 ns (in Cc1ccccc1) and 8.6 ns (in O=P(c1ccccc1)(c1ccccc1)c1ccccc1Oc1ccccc1P(=O)(c1ccccc1)c1ccccc1).

For `Cc1ccc2sc3cc(CCC(=O)O)ccc3c(=O)c2c1`, the fluorescence lifetime stood at 0.07 ns (in CC#N); 1.3 ns (in CC(C)O); 1.7 ns (in CCO); 2.55 ns (in CO); 4.6 ns (in OCCO).

Consider `CCCCCCCCCCCCOc1cc2c3c(ccc4c5c(OC6CCC(C(C)(C)C)CC6)cc6c7c(ccc(c1c34)c75)C(=O)N(C1CCCCC1)C6=O)C(=O)N(C1CCCCC1)C2=O` (stereo not given), for which the fluorescence lifetime (in ClC(Cl)Cl) turned out to be 5 ns.

For the setting “in C1CCOC1”, `CCOC(=O)c1ccc(C2=CC3=c4cc(-c5ccc(C(=O)OCC)cc5)c5nc(C(F)(F)C(F)(F)C(F)(F)F)nc6c(-c7ccc(C(=O)OCC)cc7)cc(c4c65)C4=CC(c5ccc(C(=O)OCC)cc5)=C5N=C(C(F)(F)C(F)(F)C(F)(F)F)N=C2C5C43)cc1` (stereo not given) displayed a fluorescence lifetime of 2.8 ns.

Molecule `CN(C)c1ccc(/C=C/C=C2\CC/C(=C\C=C\c3ccc(N(C)C)cc3)C2=O)cc1` had a fluorescence lifetime (in C1CCCCC1) of 0.48 ns; a fluorescence lifetime (in CC#N) of 0.49 ns; a fluorescence lifetime (in CC(C)=O) of 0.8 ns; a fluorescence lifetime (in CC(C)O) of 0.56 ns; a fluorescence lifetime (in CCCCCC) of 0.86 ns; a fluorescence lifetime (in CCCCO) of 0.37 ns. In addition, the fluorescence lifetime turned out to be 0.19 ns (in CCCO); 0.24 ns (in CCO); 0.69 ns (in CCOC(C)=O); 0.76 ns (in CCOCC); 0.67 ns (in CN(C)C=O); 0.21 ns (in CO). Further, the fluorescence lifetime by setting is: (in CS(C)=O) 0.58 ns; (in Cc1ccccc1) 0.86 ns; (in ClC(Cl)(Cl)Cl) 0.76 ns; (in ClCCl) 1.08 ns; (in OCC(F)(F)F) 0.14 ns; (in S=C=S) 0.83 ns. Also, the fluorescence lifetime turned out to be 0.81 ns (in c1ccccc1) and 1.17 ns (in c1ccncc1).

Turning to `COc1ccc(C2=Cc3cc4ccccc4cc3P2(=O)c2ccccc2)cc1` (stereo not given), under “in ClCCl”, the fluorescence lifetime is 3.8 ns.

In turn, `Cc1cc(C)c(-c2nnc(-c3ccc(-n4c5ccccc5c5ccccc54)cc3)o2)c(C)c1` came in with a fluorescence lifetime (in CCO) of 2.1 ns.

With `COc1cc2cc(/C=C/c3ccc(/C=C/c4ccc(/C=C(\C#N)C(=O)O)cc4)cc3)c(=O)oc2cc1OC`, the fluorescence lifetime (in CC#N) came to 2.3 ns.

`c1csc(-c2ccc(-c3cccs3)s2)c1` returned a fluorescence lifetime (in CC#N) of 0.2 ns and a fluorescence lifetime (in ClCCl) of 0.17 ns.

Under “in ClCCl”, `CCCCn1c(-c2ccc(-c3nnc(-c4ccc(-c5nc6ccccc6n5CCCC)cc4)o3)cc2)nc2ccccc21` displayed a fluorescence lifetime of 0.99 ns.

On to `CCCCCCOc1ccc(/C=C/c2ccc(N(c3ccc(/C=C/c4ccc(OCCCCCC)cc4)cc3)c3ccc(-c4nc5ccccc5nc4-c4ccc(N(c5ccc(/C=C/c6ccc(OCCCCCC)cc6)cc5)c5ccc(/C=C/c6ccc(OCCCCCC)cc6)cc5)cc4)cc3)cc2)cc1`, for which the fluorescence lifetime (in C1CCOC1) is 2.05 ns.

As to `N#CC(C#N)=C(/C=C/c1ccc(N(c2ccccc2)c2ccccc2)cc1)c1ccc2c3c(cccc13)CC2`, the fluorescence lifetime runs as follows: (in C1CCOC1) 3.5 ns; (in CC#N) 1.22 ns; (in CC(C)=O) 1.04 ns; (in CCOC(C)=O) 3.01 ns; (in CN(C)C=O) 1.02 ns; (in CO) 2.1 ns. The fluorescence lifetime (in Cc1ccccc1) stood at 2.26 ns and the fluorescence lifetime (in ClC(Cl)Cl) was found to be 6.54 ns.

Regarding `CCCCCCCCCCCCCCCCOc1cc(C#Cc2ccc3ccccc3c2-c2c(C#Cc3cc(OCCCCCCCCCCCCCCCC)c(C#Cc4ccc(C=C(C#N)C#N)cc4)cc3OCCCCCCCCCCCCCCCC)ccc3ccccc23)c(OCCCCCCCCCCCCCCCC)cc1C#Cc1ccc(C=C(C#N)C#N)cc1`, the fluorescence lifetime was determined as 2.8 ns (in Brc1ccccc1); 2.02 ns (in C1CCCCC1); 1.25 ns (in C1CCOC1); 3.06 ns (in C1COCCO1); 2.15 ns (in CCCCCC); 0.79 ns (in CCCCCCCCO). Besides, the fluorescence lifetime by setting is: (in CCCCOCCCC) 2.74 ns; (in CCOC(C)=O) 1.51 ns; (in CCOCC) 3.29 ns; (in Cc1ccccc1) 2.59 ns; (in ClC(Cl)(Cl)Cl) 2.16 ns; (in ClC(Cl)Cl) 2.35 ns. Moreover, the fluorescence lifetime (in ClCCl) was 0.79 ns.

Regarding `Cc1cccc2[n+]1[B-](F)(F)n1c(c3cccc4cccc1c43)=N2`, the fluorescence lifetime (in ClCCl) was 7.1 ns.

Take `O=C1c2ccccc2C(=O)c2cc(-c3ccc(N(c4ccccc4)c4ccccc4)cc3)ccc21`: the fluorescence lifetime amounted to 5.51 ns (in CCCCCC); 0.15 ns (in CCOC(C)=O); 2.81 ns (in CCOCC); 6.79 ns (in Cc1ccccc1); 8.82 ns (in ClC(Cl)(Cl)Cl).

For `COc1cc2c(cc1/C=C/C1=CC(=C(C#N)C#N)CC(C)(C)C1)c1ccccc1n2C`, the fluorescence lifetime (in C1CCOC1) stood at 6.48 ns; the fluorescence lifetime (in CC#N) worked out at 10.4 ns; the fluorescence lifetime (in CCO) turned out to be 7.78 ns; the fluorescence lifetime (in CCOC(C)=O) came to 6.38 ns; the fluorescence lifetime (in CN(C)C=O) stood at 9.14 ns; the fluorescence lifetime (in CS(C)=O) was 8.27 ns. Besides, the fluorescence lifetime (in Cc1ccccc1) amounted to 8.3 ns, the fluorescence lifetime (in ClC(Cl)Cl) is 9.43 ns and the fluorescence lifetime (in ClCCl) stood at 6.7 ns.

`CN(C)c1ccc(-c2ccc(-c3nc(C#N)c(C#N)n3C)cc2)cc1` displayed a fluorescence lifetime (in C1CCCCC1) of 1 ns and a fluorescence lifetime (in ClC(Cl)Cl) of 2 ns.
